Key:
[1] = Calculated weak-acid distribution Ci/Ce between inner and outer leaflets; details: pKa 5.7
Source text: Thus, cyclic peptides could be considered as a weak acid with multiple protonatable groups, which can diffuse across the bilayer. For weak acids, the intracellular-extracellular distribution, Ci/Ce, should be calculated according to the following equation: […]
where pHi and pHe are the intracellular and extracellular pH values, respectively. Since the cyclic peptides have affinity to the membrane, we consider Ci and Ce as the concentrations of the peptide on inner and outer leaflets, respectively. […] However, the same ratio increases to 4.5, 7.8, and 10.9 if extracellular pHe would be 6.5, 6.2 and 6.0, respectively. We assume that the symmetrical WE peptides have the same mechanism of action as an asymmetric peptide, however they have less favorable localization of Trp and Glu residues, which reduces their ability to accumulate at the inner leaflet of bilayer of cellular membranes and target acidic tumors. Leu-containing peptides are less advantageous due to their reduced affinity to the headgroup part of the bilayer and high affinity to the center of the membrane.

[2] = type: physicochemical; details: pH 8
Method: Large unilamellar vesicles (LUVs) were prepared by extrusion. POPC, 1-palmitoyl-2-oleoyl-sn-glycero-3-phosphocholine (Avanti Polar Lipids), or a mixture of POPC with 0.5% of 18:1 NBD-PE, 1,2-dioleoyl-sn-glycero-3-phosphoethanolamine-N-7-nitro-2-1,3-benzoxadiazol-4-yl ammonium salt (Avanti Polar Lipids) were dissolved in chloroform, desolvated on a rotary evaporator, and dried under high vacuum for several hours. The phospholipid film was then rehydrated in 10 mM phosphate buffer pH 8.0, vortexed until the lipid bilayer was completely dissolved, and repeatedly (15–21 times) extruded through the membranes with 50 nm pore sizes to obtain LUVs.
pH-dependent partitioning of the peptides into a lipid bilayer of the membrane was investigated by the shift of the position of the fluorescence spectral maximum for the peptides in the presence POPC liposomes induced by a drop of pH from 8 to 2.5 by the addition of HCl. The peptides were incubated overnight with 50-nm POPC liposomes (final concentration of the peptides and POPC in solution was 5 μM and 1 mM, respectively), and pH decrease was achieved by the addition of aliquots of 4, 2, 1 and 0.1 M HCl. pH was measured by micro-electrode probe (Thermo Electron Corporation, Orion Ross Micro pH electrode). Fluorescence spectra were recorded at each pH value. The spectra were analyzed by the decomposition algorithms using on-line PFAST toolkit[47] (Protein Fluorescence and Structural Toolkit: http://pfast.phys.uri.edu/) to establish the position of the emission maximum. Finally, the positions of the fluorescence spectral maxima (λmax) were plotted versus pH, and the Henderson–Hasselbalch equation was used to fit the data (using Origin 8.5 software): […]
where [drawing 3] and [drawing 4] are the beginning and the end of the transition, respectively, and pKa – is the midpoint of the transition.

## O=C(O)CC[C@@H]1NC(=O)[C@H](CS)NC(=O)[C@H](Cc2c[nH]c3ccccc23)NC(=O)[C@H](Cc2c[nH]c3ccccc23)NC(=O)[C@H](Cc2c[nH]c3ccccc23)NC(=O)[C@H](Cc2c[nH]c3ccccc23)NC(=O)[C@H](Cc2c[nH]c3ccccc23)NC(=O)[C@H](CCC(=O)O)NC(=O)[C@H](CCC(=O)O)NC(=O)[C@H](CCC(=O)O)NC1=O [c[E4W5C]]
[1]; pHe 6.0, pHi = 7.2
  concentration ratio at the inner and outer leaflets, Ci/Ce: 10.9
[1]; pHe 6.2, pHi = 7.2
  concentration ratio at the inner and outer leaflets, Ci/Ce: 7.8
[1]; pHe 6.5, pHi = 7.2
  concentration ratio at the inner and outer leaflets, Ci/Ce: 4.5
[1]; pHe = 7.4, pHi = 7.2
  concentration ratio at the inner and outer leaflets, Ci/Ce: 0.6
[2]
  apparent pK (pKa) of peptide's partitioning into the bilayer: 5.7

Source: PMC4981864, “Novel pH-Sensitive Cyclic Peptides” (Scientific Reports, 2016)
